Experimental data reported in patent US9963467B2, “Boronic acid derivatives and therapeutic uses thereof” (Rempex Pharmaceuticals, Inc., priority 2014, dated 2018).
One block for each compound: values may come before it.

Legend:
[1] = Serum stability of prodrugs, human serum; assay type: in vitro ADME; conditions: human serum
Method: (§1) Prodrug strategy is one of the ways to achieve or increase oral bioavailability for therapeutic drugs. […] After a prodrug molecule is absorbed into systemic circulation, it should be hydrolyzed in the blood in order to release the active form. Hydrolysis of several prodrugs by rat and human serum were evaluated.
(§2) For all stability experiments the test compounds were treated with rat or human serum in Eppendorf tubes. Typically, 992 μl of serum was prewarmed at 37 degrees for 2 minutes and then 8 μl of a compound (at 5 mg/ml, 125×) was added to it to get a final concentration of […] and immediately mixed. Alternatively, serum stability might be tested at 1 mg/ml. […] After vortexing for 30 seconds, the tube was centrifuged in a microcentrifuge for 10 minutes at 15K rpm. Next, 100 μl of the supernatant was combined with 600 μl of water and injected on LC-MS using 0.1% formic acid in water for mobile phase A and 0.1% formic acid in methanol for mobile phase B on an ACE 5 C18 2.1×100 mm column with a 10 μL injection. The flow rate and gradient were adjusted as needed to give the desired resolution and run time. The pH of the mobile phase was adjusted if needed to improve the chromatography.
(§3) The time course of both the disappearance of a prodrug and the appearance of the active form of that prodrug is presented in Table 6 and Table 7. The active metabolites for all of the listed prodrugs are corresponding parent drugs

[2] = Serum stability of prodrugs, rat serum; assay type: in vitro ADME; conditions: for Measured Initial Conc. in Serum: 37 degrees
Method: as §1, §2, §3

[3] = Serum stability of prodrugs, human serum; assay type: in vitro ADME; conditions: theoretical initial conc. 20 ug/mL
[4] = test system: KP1004 (KPC-2); experiment: Biapenem potentiation (MPC@1), KP1004
[5] = test system: KP1086 (OXA-48); experiment: Biapenem potentiation (MPC@1), KP1086
[6] = test system: ec302 (TEM-10); experiment: Aztreonam potentiation (MPC@4), ec302; assay type: cell-based; conditions: BLI with aztreonam at 4 μg/mL
[7] = test system: ECL1002; experiment: Aztreonam potentiation (MPC@4), ECL1002; assay type: cell-based; conditions: BLI with aztreonam at 4 μg/mL
[8] = test system: EC1010 (CMY-6); experiment: organism not typed; assay type: cell-based
[9] = test system: KP1005 (CTX-M-14); experiment: Tigemonam potentiation (MPC@4), KP1005; assay type: cell-based; conditions: BLI with tigemonam at 4 μg/mL
[10] = test system: KP1009 (CTX-M-15); experiment: Tigemonam potentiation (MPC@4), KP1009; assay type: cell-based; conditions: BLI with tigemonam at 4 μg/mL
[11] = test system: ec308 (SHV-5); experiment: Tigemonam potentiation (MPC@4), ec308; assay type: cell-based
[12] = test system: KP1010 (SHV-12); experiment: Tigemonam potentiation (MPC@4), KP1010; assay type: cell-based
[13] = test system: ec302 (TEM-10); experiment: Tigemonam potentiation (MPC@4), ec302; assay type: cell-based
[14] = test system: ECL1002; experiment: Tigemonam potentiation (MPC@4), ECL1002; assay type: cell-based; conditions: BLI with tigemonam at 4 μg/mL
[15] = test system: EC1010 (CMY-6); experiment: Tigemonam potentiation (MPC@4), EC1010; assay type: cell-based; conditions: BLI with tigemonam at 4 μg/mL
[16] = target: CTX-M-14 (Escherichia coli, UniProt Q9L5C7); experiment: Ki, nitrocefin cleavage by purified enzyme, CTX-M-14; assay type: biochemical; conditions: nitrocefin reporter substrate; read-out: Ki (CTX-M-14, NCF)
Sequence of CTX-M-14 (Q9L5C7 29-291): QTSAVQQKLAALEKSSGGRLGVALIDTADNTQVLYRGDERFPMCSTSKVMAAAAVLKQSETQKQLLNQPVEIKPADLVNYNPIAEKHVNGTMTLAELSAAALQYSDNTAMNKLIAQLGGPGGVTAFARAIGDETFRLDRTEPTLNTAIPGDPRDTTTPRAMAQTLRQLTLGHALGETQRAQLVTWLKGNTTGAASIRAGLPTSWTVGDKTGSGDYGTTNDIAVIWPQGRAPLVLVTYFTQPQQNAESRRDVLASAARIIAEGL
Method: (§4) Purified enzymes were mixed with various concentrations of inhibitors in reaction buffer and incubated for 10 min at room temperature. Nitrocefin was added and substrate cleavage profiles were recorded at 490 nm every 10 sec for 10 min.

[17] = target: SHV-12 (Klebsiella pneumoniae, UniProt P0AD64, E235K/G234S/L31Q); experiment: Ki, nitrocefin cleavage by purified enzyme, SHV-12; assay type: biochemical; conditions: nitrocefin reporter substrate; read-out: Ki (SHV-12, NCF)
Sequence of SHV-12 (P0AD64 22-286 L31Q/G234S/E235K): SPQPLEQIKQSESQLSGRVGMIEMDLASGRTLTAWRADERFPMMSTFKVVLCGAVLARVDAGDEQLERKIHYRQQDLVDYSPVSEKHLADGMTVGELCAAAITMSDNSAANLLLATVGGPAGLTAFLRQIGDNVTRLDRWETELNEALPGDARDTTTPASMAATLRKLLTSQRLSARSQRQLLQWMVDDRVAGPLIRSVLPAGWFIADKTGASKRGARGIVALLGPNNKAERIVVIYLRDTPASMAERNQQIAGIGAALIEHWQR
Method: as §4

[18] = target: KPC-2 (Klebsiella pneumoniae, UniProt Q9F663); experiment: Ki, nitrocefin cleavage by purified enzyme, KPC-2; assay type: biochemical; conditions: nitrocefin reporter substrate; read-out: Ki (KPC-2, NCF)
Sequence of KPC-2 (Q9F663 25-293, looked up, species assumed): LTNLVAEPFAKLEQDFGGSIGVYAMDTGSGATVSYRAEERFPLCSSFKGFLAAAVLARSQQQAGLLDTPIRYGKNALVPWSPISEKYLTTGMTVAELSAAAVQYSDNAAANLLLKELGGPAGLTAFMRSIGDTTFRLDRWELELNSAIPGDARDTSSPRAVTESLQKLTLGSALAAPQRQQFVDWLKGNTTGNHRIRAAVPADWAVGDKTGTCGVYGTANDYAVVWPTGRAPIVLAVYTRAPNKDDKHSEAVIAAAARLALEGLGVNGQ
Method: as §4

[19] = target: P99 (Enterobacter cloacae, UniProt P05364); experiment: Ki, nitrocefin cleavage by purified enzyme, P99; assay type: biochemical; conditions: nitrocefin reporter substrate; read-out: Ki (P99, NCF)
Sequence of P99 (P05364 21-381): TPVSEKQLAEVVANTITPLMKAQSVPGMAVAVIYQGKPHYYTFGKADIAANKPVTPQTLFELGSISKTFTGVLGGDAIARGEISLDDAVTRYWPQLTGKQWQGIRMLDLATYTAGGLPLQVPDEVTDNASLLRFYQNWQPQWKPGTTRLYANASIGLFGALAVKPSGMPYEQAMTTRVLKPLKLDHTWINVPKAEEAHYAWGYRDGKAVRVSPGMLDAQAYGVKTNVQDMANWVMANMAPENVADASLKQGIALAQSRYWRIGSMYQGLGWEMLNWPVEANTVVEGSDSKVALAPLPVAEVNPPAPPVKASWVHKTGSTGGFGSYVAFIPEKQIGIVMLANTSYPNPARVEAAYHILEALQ
Method: as §4

[20] = target: Pa AmpC (Pseudomonas aeruginosa, UniProt P24735); experiment: Ki, nitrocefin cleavage by purified enzyme, Pa AmpC; assay type: biochemical; conditions: nitrocefin reporter substrate; read-out: Ki (Pa AmpC, NCF)
Sequence of Pa AmpC (P24735 27-397): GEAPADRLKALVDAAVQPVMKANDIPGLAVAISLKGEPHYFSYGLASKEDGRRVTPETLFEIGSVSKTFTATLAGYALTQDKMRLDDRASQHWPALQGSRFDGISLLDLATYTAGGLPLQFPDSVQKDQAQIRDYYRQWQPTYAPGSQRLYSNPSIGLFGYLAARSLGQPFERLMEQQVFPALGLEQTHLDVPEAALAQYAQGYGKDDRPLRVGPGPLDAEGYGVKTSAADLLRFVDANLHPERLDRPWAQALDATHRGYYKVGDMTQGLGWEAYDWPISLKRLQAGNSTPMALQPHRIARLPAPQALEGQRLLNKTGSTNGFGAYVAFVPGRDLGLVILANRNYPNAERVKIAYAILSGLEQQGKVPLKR
Method: Ki values of inhibition of purified class A, C and D enzymes were determined spectrophotometrically using nitrocefin as reporter substrate. Purified enzymes were mixed with various concentrations of inhibitors in reaction buffer and incubated for 10 min at room temperature. Nitrocefin was added and substrate cleavage profiles were recorded at 490 nm every 10 sec for 10 min. These experiments confirmed that the described compounds are inhibitors with a broad-spectrum of activity towards various β-lactamases.

[21] = target: OXA-48 (Klebsiella pneumoniae, UniProt Q6XEC0); experiment: Ki, nitrocefin cleavage by purified enzyme, OXA-48; assay type: biochemical; conditions: nitrocefin reporter substrate; read-out: Ki (OXA-48, NCF)
Sequence of OXA-48 (Q6XEC0 23-265, looked up, species assumed): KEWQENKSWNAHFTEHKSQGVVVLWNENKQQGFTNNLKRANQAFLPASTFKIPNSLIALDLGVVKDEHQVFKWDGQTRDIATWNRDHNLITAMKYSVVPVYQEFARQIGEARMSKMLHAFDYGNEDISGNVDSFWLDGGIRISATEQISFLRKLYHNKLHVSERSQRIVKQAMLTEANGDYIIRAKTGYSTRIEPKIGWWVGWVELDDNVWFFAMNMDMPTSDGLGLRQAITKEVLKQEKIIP
Method: as §4

[22] = prodrug, theoretical initial conc. 20 ug/mL
[23] = prodrug, theoretical initial conc. 40 ug/mL

Conc. at t = 3 hr [1, 22]: 12500 ng/mL
Measured Initial Conc. in Serum ([2]; theoretical initial conc. 20 ug/mL): 18.4 µg/mL
Conc. at t = 1 hr [2, 22]: 16000 ng/mL
Conc. at t = 3 hr [2, 22]: 5210 ng/mL
Measured Initial Conc. in Serum ([3]; 37 degrees): 18.6 µg/mL
Conc. at t = 1 hr ([3]; prodrug): 18100 ng/mL
SMILES: CSCC(=O)N[C@H]1Cc2ccc(SC)c(C(=O)OCOC(=O)C(C)C)c2OB1O [Compound 44, 2-methylpropanoyloxymethyl(3R)-2-hydroxy-7-methylsulfanyl-3-[(2-methylsulfanylacetyl)amino]-3,4-dihydro-1,2-benzoxaborinine-8-carboxylate]

SMILES: C[C@@H](O)[C@H]1C(=O)N2C(C(=O)[O-])=C(SC3Cn4cnc[n+]4C3)[C@H](C)[C@H]12 (some centres unmarked) [Biapenem, reference compound]
MIC ([4]; read-out: Biapenem MIC KP1004): > 10 µg/mL
MIC ([5]; read-out: Biapenem MIC KP1086): > 10 µg/mL

SMILES: COc1ccc2c(c1C(=O)O)OB(O)[C@@H](NC(=O)CSC1CNC1)C2 [Compound 26, (R)-3-(2-(azetidin-3-ylthio)acetamido)-2-hydroxy-7-methoxy-3,4-dihydro-2H-benzo[e][1,2]oxaborinine-8-carboxylic acid]
AZT MPC4 TEM-10 ec302 [6]: Y (MIC of 1 μg/mL to 10 μg/mL)
AZT MPC4 ECL1002 [7]: Y (MIC of 1 μg/mL to 10 μg/mL)
AZT MPC4 CMY-6 EC1010 [8]: Y (key: X: MIC of less than 1 ng/mL; Y: MIC of 1 μg/mL to 10 μg/mL; Z: MIC of greater than 10 μg/mL)
TIG MPC4 CTX-M-14 KP1005 [9]: X (MIC of less than 1 μg/mL)
TIG MPC4 CTX-M-15 KP1009 [10]: X (MIC of less than 1 μg/mL)
TIG MPC4 SHV-5 ec308 [11]: X (key: X: MIC of less than 1 μg/mL; Y: MIC of 1 μg/mL to 10 μg/mL; Z: MIC of greater than 10 μg/mL)
TIG MPC4 SHV-12 KP1010 [12]: X (key: X: MIC of less than 1 μg/mL; Y: MIC of 1 μg/mL to 10 μg/mL; Z: MIC of greater than 10 μg/mL)
TIG MPC4 TEM-10 ec302 [13]: Y (key: X: MIC of less than 1 ng/mL; Y: MIC of 1 μg/mL to 10 μg/mL; Z: MIC of greater than 10 μg/mL)
TIG MPC4 ECL1002 [14]: X (MIC of less than 1 μg/mL)
TIG MPC4 CMY-6 EC1010 [15]: X (MIC of less than 1 μg/mL)
Ki [16]: < 1 nM
Ki [17]: < 1 nM
Ki [18]: > 10 nM
Ki [19]: > 10 nM
Ki [20]: > 10 nM
Ki [21]: 1 to 10 nM
BPM MPC1 KP1004 KPC-2 ([4]; BLI with biapenem at 1 μg/mL): X (MIC of less than 1 μg/mL)
BPM MPC1 OXA-48 KP1086 ([5]; BLI with biapenem at 1 μg/mL): Y (MIC of 1 μg/mL to 10 μg/mL)

Measured Initial Conc. in Serum ([1]; 37 degrees, theoretical initial conc. 40 ug/mL): 33.2 µg/mL
Conc. at t = 2 h [1, 23]: 12800 ng/mL
Conc. at t = 4 h [1, 23]: 5320 ng/mL
Measured Initial Conc. in Serum ([2]; theoretical initial conc. 40 ug/mL): 30.6 µg/mL
Conc. at t = 2 h [2, 23]: BQL
Conc. at t = 4 h [2, 23]: BQL
SMILES: CSCC(=O)N[C@H]1Cc2ccc(F)c(C(=O)OCOC(=O)OC(C)C)c2OB1O [Compound 15, (R)-(isopropoxycarbonyloxy)methyl 7-fluoro-2-hydroxy-3-(2-(methylthio)acetamido)-3,4-dihydro-2H-benzo[e][1,2]oxaborinine-8-carboxylate]
